How the values were obtained:
[1] = 101.33 kPa, Liquid
[2] = xn = mol fraction of the nth substance listed; settings: 101.33 kPa, Liquid

C=C(C)C(=O)OCCO [2-hydroxyethyl 2-methyl-2-propenoate]
[1]
Settings | mass density [kg/m3] | viscosity [mPa·s]
298.15 K | 1067.1 | 5.784
308.15 K | 1057.7 | 4.194
318.15 K | 1048.6 | 3.181

C=C(C)C(=O)OCCO [2-hydroxyethyl 2-methyl-2-propenoate] + CCOCCC(=O)OCC
[2], x2 = 0
Settings | mass density [kg/m3] | viscosity [mPa·s]
298.15 K | 1067.1 | 5.784
308.15 K | 1057.7 | 4.194
318.15 K | 1048.6 | 3.181

C=C(C)C(=O)O [2-methyl-2-propenoic acid]
[1]
Settings | mass density [kg/m3] | viscosity [mPa·s]
298.15 K | 1009.5 | 1.267
308.15 K | 999.4 | 1.078
318.15 K | 989.2 | 0.945

C=C(C)C(=O)O [2-methyl-2-propenoic acid] + CCOCCC(=O)OCC
[2], x2 = 0
Settings | mass density [kg/m3] | viscosity [mPa·s]
298.15 K | 1009.5 | 1.267
308.15 K | 999.4 | 1.078
318.15 K | 989.2 | 0.945

C=C(C)C(=O)OCc1ccccc1 [benzyl methacrylate]
[1]
Settings | mass density [kg/m3] | viscosity [mPa·s]
298.15 K | 1034.7 | 2.302
308.15 K | 1025.8 | 1.885
318.15 K | 1017 | 1.58

C=C(C)C(=O)OCc1ccccc1 [benzyl methacrylate] + CCOCCC(=O)OCC
[2], x2 = 0
Settings | mass density [kg/m3] | viscosity [mPa·s]
298.15 K | 1034.7 | 2.302
308.15 K | 1025.8 | 1.885
318.15 K | 1017 | 1.58

CCCCO [butan-1-ol]
[1]
Settings | mass density, 298.15 K [kg/m3] | mass density, 303.15 K [kg/m3] | mass density, 308.15 K [kg/m3] | mass density, 313.15 K [kg/m3] | viscosity, 298.15 K [mPa·s] | viscosity, 303.15 K [mPa·s] | viscosity, 308.15 K [mPa·s] | viscosity, 313.15 K [mPa·s]
Capillary tube (Ostwald / Ubbelohde) method | – | – | – | – | 2.566 | 2.265 | 1.998 | 1.778
Pycnometric method | 805.6 | 802.1 | 798 | 794.5 | – | – | – | –

CCOCCC(=O)OCC [ethyl β-ethoxypropionate]
[1]
Settings | mass density [kg/m3] | viscosity [mPa·s]
298.15 K | 943.2 | 1.176
308.15 K | 933.4 | 0.996
318.15 K | 923.3 | 0.859

CCOCCC(=O)OCC [ethyl β-ethoxypropionate] + C=C(C)C(=O)O
[2]
Settings | mass density, 298.15 K [kg/m3] | mass density, 308.15 K [kg/m3] | mass density, 318.15 K [kg/m3] | viscosity, 298.15 K [mPa·s] | viscosity, 308.15 K [mPa·s] | viscosity, 318.15 K [mPa·s]
x1 = 0.1 | 1000.5 | 990.7 | 980.6 | 1.349 | 1.139 | 0.986
x1 = 0.1999 | 992.4 | 982.7 | 972.8 | 1.425 | 1.198 | 1.028
x1 = 0.3 | 984.9 | 975.1 | 965.2 | 1.504 | 1.257 | 1.075
x1 = 0.4 | 978.1 | 968.3 | 958.4 | 1.551 | 1.293 | 1.103
x1 = 0.5 | 971.5 | 961.7 | 951.9 | 1.516 | 1.262 | 1.08
x1 = 0.6 | 965.3 | 955.6 | 945.7 | 1.439 | 1.211 | 1.029
x1 = 0.7 | 959.5 | 949.8 | 939.8 | 1.369 | 1.156 | 0.982
x1 = 0.8 | 954.1 | 944.4 | 934.4 | 1.313 | 1.108 | 0.944
x1 = 0.8999 | 948.5 | 938.9 | 929.1 | 1.243 | 1.049 | 0.899
x1 = 1 | 943.2 | 933.4 | 923.3 | 1.176 | 0.996 | 0.859

CCOCCC(=O)OCC [ethyl β-ethoxypropionate] + C=C(C)C(=O)OCCO
[2]
Settings | mass density, 298.15 K [kg/m3] | mass density, 308.15 K [kg/m3] | mass density, 318.15 K [kg/m3] | viscosity, 298.15 K [mPa·s] | viscosity, 308.15 K [mPa·s] | viscosity, 318.15 K [mPa·s]
x1 = 0.1 | 1053 | 1043.6 | 1034.4 | 4.507 | 3.352 | 2.598
x1 = 0.2 | 1039.1 | 1029.6 | 1020.3 | 3.696 | 2.821 | 2.239
x1 = 0.3 | 1025.6 | 1016.1 | 1006.6 | 3.072 | 2.379 | 1.918
x1 = 0.4 | 1012.7 | 1003.1 | 993.5 | 2.503 | 1.98 | 1.611
x1 = 0.5 | 1000.2 | 990.5 | 980.8 | 2.156 | 1.731 | 1.425
x1 = 0.6 | 988.1 | 978.4 | 968.6 | 1.833 | 1.495 | 1.243
x1 = 0.6999 | 976.5 | 966.8 | 956.9 | 1.627 | 1.34 | 1.127
x1 = 0.8 | 965.2 | 955.5 | 945.6 | 1.417 | 1.181 | 1.007
x1 = 0.9 | 954.3 | 944.6 | 934.6 | 1.269 | 1.065 | 0.911
x1 = 1 | 943.2 | 933.4 | 923.3 | 1.176 | 0.996 | 0.859

CCOCCC(=O)OCC [ethyl β-ethoxypropionate] + C=C(C)C(=O)OCc1ccccc1
[2]
Settings | mass density, 298.15 K [kg/m3] | mass density, 308.15 K [kg/m3] | mass density, 318.15 K [kg/m3] | viscosity, 298.15 K [mPa·s] | viscosity, 308.15 K [mPa·s] | viscosity, 318.15 K [mPa·s]
x1 = 0.1 | 1027 | 1017.9 | 1008.9 | 2.16 | 1.767 | 1.479
x1 = 0.2 | 1019.1 | 1009.9 | 1000.7 | 2.027 | 1.664 | 1.398
x1 = 0.3 | 1010.9 | 1001.5 | 992.1 | 1.91 | 1.571 | 1.323
x1 = 0.4 | 1002.3 | 992.7 | 983.2 | 1.795 | 1.48 | 1.247
x1 = 0.4999 | 993.4 | 983.7 | 974 | 1.681 | 1.391 | 1.173
x1 = 0.6 | 984.2 | 974.4 | 964.5 | 1.569 | 1.303 | 1.101
x1 = 0.7 | 974.7 | 964.8 | 954.7 | 1.457 | 1.215 | 1.029
x1 = 0.8 | 964.9 | 954.9 | 944.6 | 1.347 | 1.129 | 0.961
x1 = 0.9 | 954.3 | 944.3 | 934.1 | 1.242 | 1.047 | 0.899
x1 = 1 | 943.2 | 933.4 | 923.3 | 1.176 | 0.996 | 0.859
